Experimental findings from patent US9586951B2 (FUJIFILM Corporation, priority 2013, dated 2017) are described below.

One assay has as its target T1, ATM (Homo sapiens, UniProt Q13315).
T1 construct: detecting phosphorylation of Chk2 in a human non-small cell lung cancer cell line NCI-H460 (ATCC company); host or cells: NCI-H460 human non-small cell lung cancer cells
Kind of assay: ATM inhibition test (phosphorylation of Chk2 generated by ionizing radiation, AlphaScreen SureFire). To be noted: phosphorylated Chk2 in NCI-H460 cells, ionizing radiation 8Gy, 1 hour after test compound treatment; read-out: ATM inhibitory activity. In kind it is cell-based. The gist of the method: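 Phosphorylated Chk2 read by AlphaScreen SureFire in human non-small cell lung cancer NCI-H460 cells, 1 hour after 8Gy ionizing radiation at 37° C. Compound added 1 hour before irradiation. Percent inhibition normalised between irradiated and non-irradiated drug-untreated signals.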

The test system of assay [1] is human non-small cell lung cancer cell line NCI-H460. The assay can be described thus: Cell proliferation inhibition test by sensitivity-enhancing to ionizing radiation (Cell Titer Glo). In kind it is cell-based. To be noted: concentration in which SER became 2, NCI-H460 cells, ionizing radiation 2 Gy, cultured 120 hour. The gist of the method: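 Cells seeded at 2×10^3 cells/mL in RPMI-1640 with 10% FBS; after 24 h, compound added (0.1% DMSO), and 30 min later half the plates irradiated at 2 Gy. After 120 hour at 37° C, viability by Cell Titer Glo luminescence; SER2 is the concentration giving SER of 2 by sigmoidal fit.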

T1 sequence (Q13315 whole entry): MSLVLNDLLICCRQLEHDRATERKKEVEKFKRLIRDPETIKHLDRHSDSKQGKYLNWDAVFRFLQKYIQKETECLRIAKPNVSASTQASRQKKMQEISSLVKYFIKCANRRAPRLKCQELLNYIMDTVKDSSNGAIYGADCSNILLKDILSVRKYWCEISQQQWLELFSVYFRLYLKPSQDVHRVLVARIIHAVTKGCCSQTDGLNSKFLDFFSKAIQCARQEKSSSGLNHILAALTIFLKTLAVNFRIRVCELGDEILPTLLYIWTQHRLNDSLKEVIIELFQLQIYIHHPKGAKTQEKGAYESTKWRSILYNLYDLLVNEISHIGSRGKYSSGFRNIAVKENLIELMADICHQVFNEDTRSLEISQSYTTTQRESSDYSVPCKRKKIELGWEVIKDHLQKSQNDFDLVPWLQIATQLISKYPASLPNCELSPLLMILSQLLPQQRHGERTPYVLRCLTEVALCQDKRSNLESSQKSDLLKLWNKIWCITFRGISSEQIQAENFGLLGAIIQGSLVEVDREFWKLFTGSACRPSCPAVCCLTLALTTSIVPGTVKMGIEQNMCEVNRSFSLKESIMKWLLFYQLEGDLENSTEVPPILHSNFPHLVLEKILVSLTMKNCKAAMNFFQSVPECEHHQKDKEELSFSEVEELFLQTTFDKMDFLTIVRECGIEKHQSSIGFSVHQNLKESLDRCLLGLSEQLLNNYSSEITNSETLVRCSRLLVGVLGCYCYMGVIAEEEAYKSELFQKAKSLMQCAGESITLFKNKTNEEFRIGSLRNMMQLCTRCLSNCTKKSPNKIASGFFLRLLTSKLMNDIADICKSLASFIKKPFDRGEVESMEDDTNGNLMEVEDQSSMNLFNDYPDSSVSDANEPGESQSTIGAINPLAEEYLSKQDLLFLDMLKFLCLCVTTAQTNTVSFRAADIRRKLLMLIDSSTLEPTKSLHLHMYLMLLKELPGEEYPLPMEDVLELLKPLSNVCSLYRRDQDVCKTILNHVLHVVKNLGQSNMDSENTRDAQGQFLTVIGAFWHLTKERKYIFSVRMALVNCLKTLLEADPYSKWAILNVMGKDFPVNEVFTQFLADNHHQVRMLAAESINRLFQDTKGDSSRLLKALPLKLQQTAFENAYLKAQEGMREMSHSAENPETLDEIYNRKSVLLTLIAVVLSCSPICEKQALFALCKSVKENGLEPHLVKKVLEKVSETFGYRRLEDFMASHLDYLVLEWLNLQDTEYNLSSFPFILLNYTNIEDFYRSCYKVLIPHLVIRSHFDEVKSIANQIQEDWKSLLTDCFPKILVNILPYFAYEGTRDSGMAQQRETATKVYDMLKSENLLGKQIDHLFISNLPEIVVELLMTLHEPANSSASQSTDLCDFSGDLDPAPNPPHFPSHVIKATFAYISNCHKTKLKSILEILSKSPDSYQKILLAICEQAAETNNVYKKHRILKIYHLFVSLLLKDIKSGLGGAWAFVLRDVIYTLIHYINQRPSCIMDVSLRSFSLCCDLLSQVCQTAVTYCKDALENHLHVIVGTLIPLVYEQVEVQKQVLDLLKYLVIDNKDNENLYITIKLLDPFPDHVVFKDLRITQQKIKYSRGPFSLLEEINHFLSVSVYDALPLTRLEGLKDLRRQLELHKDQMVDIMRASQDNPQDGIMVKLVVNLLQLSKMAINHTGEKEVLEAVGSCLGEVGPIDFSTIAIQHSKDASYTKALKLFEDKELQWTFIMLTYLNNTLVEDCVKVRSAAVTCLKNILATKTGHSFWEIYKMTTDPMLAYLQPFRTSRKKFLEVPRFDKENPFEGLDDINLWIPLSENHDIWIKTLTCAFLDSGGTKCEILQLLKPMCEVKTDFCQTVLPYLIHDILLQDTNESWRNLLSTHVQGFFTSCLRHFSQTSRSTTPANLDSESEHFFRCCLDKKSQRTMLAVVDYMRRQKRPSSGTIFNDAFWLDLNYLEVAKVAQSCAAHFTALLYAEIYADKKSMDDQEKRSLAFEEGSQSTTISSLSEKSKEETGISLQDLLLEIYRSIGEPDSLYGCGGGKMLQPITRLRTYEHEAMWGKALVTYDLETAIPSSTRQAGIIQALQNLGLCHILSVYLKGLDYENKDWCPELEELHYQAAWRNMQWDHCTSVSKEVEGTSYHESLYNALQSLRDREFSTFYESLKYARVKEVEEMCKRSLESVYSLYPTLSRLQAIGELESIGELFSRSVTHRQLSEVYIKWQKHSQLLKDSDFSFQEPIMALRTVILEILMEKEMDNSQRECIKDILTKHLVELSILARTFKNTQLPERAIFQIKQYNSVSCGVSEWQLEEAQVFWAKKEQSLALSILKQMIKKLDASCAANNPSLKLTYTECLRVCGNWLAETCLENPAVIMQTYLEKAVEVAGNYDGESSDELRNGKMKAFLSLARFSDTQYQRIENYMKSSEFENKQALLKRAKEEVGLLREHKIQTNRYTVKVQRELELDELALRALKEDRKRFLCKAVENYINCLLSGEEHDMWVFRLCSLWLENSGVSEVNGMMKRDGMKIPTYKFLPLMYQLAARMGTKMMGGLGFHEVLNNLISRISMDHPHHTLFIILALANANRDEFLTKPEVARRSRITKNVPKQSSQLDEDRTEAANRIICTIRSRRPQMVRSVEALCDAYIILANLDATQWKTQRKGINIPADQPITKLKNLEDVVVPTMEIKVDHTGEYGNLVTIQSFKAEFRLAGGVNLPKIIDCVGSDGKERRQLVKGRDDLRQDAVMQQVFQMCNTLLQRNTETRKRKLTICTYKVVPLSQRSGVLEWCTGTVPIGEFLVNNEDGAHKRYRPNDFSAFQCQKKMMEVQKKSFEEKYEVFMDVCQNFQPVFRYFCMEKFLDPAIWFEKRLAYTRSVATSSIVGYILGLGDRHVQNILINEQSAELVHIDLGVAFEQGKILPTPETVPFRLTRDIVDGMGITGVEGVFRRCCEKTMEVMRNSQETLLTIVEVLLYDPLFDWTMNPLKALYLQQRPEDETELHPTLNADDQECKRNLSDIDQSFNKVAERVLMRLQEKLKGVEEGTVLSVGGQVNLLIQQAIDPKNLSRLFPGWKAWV

Consider `Cc1cc(C(C)Nc2ccc3c(c2)Sc2cccc(-c4cc(N5CCOCC5)cc(=O)[nH]4)c2S3)ncn1` (centres unmarked) [Example 1-12-75, 6-(7-((1-(6-Methylpyrimidin-4-yl)ethyl)amino)thianthren-1-yl)-4-morpholino pyridin-2 (1H)-one], for which, on ATM, the IC50 was less than 100 nM. The SER2 (concentration at which the radiation sensitivity-enhancement ratio reaches 2) in assay [1] (Homo sapiens, NCI-H460, 120 h) is 100 to 500 nM.
Regarding `CNc1ccc(CNc2ccc3c(c2)Sc2cccc(-c4cc(N5CCOCC5)cc(=O)[nH]4)c2O3)cn1` [Example 4-4-6, 6-(8-(((6-(Methylamino)pyridin-3-yl)methyl)amino)phenoxathiin-4-yl)-4-morpholino pyridin-2(1H)-one], the IC50 on ATM is less than 100 nM. Moreover, the SER2 (concentration at which the radiation sensitivity-enhancement ratio reaches 2) in assay [1] (Homo sapiens, NCI-H460, 120 h) lay in the range of 500 to 2000 nM.
As for `O=c1cc(N2CCOCC2)cc(-c2cccc3c2Oc2ccc(NCc4cncc(C(F)(F)F)c4)cc2C3)[nH]1` [Example 2-13-4, 4-Morpholino-6-(7-(((5-(trifluoromethyl)pyridin-3-yl)methyl)amino)-9H-xanthen-4-yl)pyridin-2(1H)-one], the IC50 at ATM is less than 100 nM. For the same compound, in assay [1] (Homo sapiens, NCI-H460, 120 h), the SER2 (concentration at which the radiation sensitivity-enhancement ratio reaches 2) was in the range of 100 to 500 nM.
For `Cc1ccnc(C(C)Nc2ccc3c(c2)Sc2cccc(-c4cc(N5CCOCC5)cc(=O)[nH]4)c2S3)c1` (single isomer, unassigned) [Example 1-12-135-1, 6-(7-((1-(4-methylpyridin-2-yl)ethyl)amino)thianthren-1-yl)-4-morpholinopyridin-2(1H)-one], the IC50 on ATM was less than 100 nM. For the same compound, in assay [1] (Homo sapiens, NCI-H460, 120 h), the SER2 (concentration at which the radiation sensitivity-enhancement ratio reaches 2) is less than 100 nM.
Consider `Cc1ccc(C(Nc2ccc3c(c2)Sc2cccc(-c4cc(N5CCOCC5)cc(=O)[nH]4)c2S3)C2CCN(C)CC2)nc1` (single isomer, unassigned) [Example 1-51-2], for which, at ATM, the IC50 is less than 100 nM. Moreover, the SER2 (concentration at which the radiation sensitivity-enhancement ratio reaches 2) in assay [1] lay in the range of 100 to 500 nM.
Consider `C[C@@H]1CN(CCNc2ccc3c(c2)Sc2cccc(-c4cc(N5CCOCC5)cc(=O)[nH]4)c2S3)C[C@H](C)O1` [Example 1-10-14, 6-(7-((2-((2S,6R)-2,6- Dimethylmorpholino)ethyl)amino)thianthren-1-yl)-4-morpholino pyridin-2(1H)-one], for which the IC50 on ATM is less than 100 nM. In addition, the SER2 (concentration at which the radiation sensitivity-enhancement ratio reaches 2) in assay [1] (Homo sapiens, NCI-H460, 120 h) lay within 100 to 500 nM.
For `Cc1ccnc(C(CF)Nc2ccc3c(c2)Sc2cccc(-c4cc(N5CCOCC5)cc(=O)[nH]4)c2S3)n1` (centres unmarked) [Example 1-12-89, 6-(7-((2-Fluoro-1-(4-methylpyrimidin-2-yl)ethyl)amino)thianthren-1-yl)-4-morpholino pyridin-2(1H)-one], the IC50 at ATM is less than 100 nM. The SER2 (concentration at which the radiation sensitivity-enhancement ratio reaches 2) in assay [1] (Homo sapiens, NCI-H460, 120 h) fell in the range of 100 to 500 nM.
For `CC(CN1CCN(C)CC1)Nc1ccc2c(c1)Sc1cccc(-c3cc(N4CCOCC4)cc(=O)[nH]3)c1S2` (single isomer, unassigned) [Example 1-13-3-2, 6-(7-((1-(4-methylpiperazin-1-yl)propan-2-yl)amino)thianthren-1-yl)-4-morpholinopyridin-2(1H)-one], on ATM, the IC50 is less than 100 nM. For the same compound, the SER2 (concentration at which the radiation sensitivity-enhancement ratio reaches 2) in assay [1] (Homo sapiens, NCI-H460, 120 h) was 100 to 500 nM.
With `COC[C@H](CN1CCOC[C@H]1C)Nc1ccc2c(c1)Sc1cccc(-c3cc(N4CCOCC4)cc(=O)[nH]3)c1S2` [Example 1-46-4, 6-(7-(((S)-1-Methoxy-3-((R)-3-methylmorpholino)propan-2-yl)amino)thianthren-1-yl)-4-morpholino pyridin-2(1H)-one], the IC50 on ATM was less than 100 nM. Besides, the SER2 (concentration at which the radiation sensitivity-enhancement ratio reaches 2) in assay [1] (Homo sapiens, NCI-H460, 120 h) lay in the range of 100 to 500 nM.
For `COc1ccnc(C(C)Nc2ccc3c(c2)Sc2cccc(-c4cc(N5CCOCC5)cc(=O)[nH]4)c2S3)n1` (centres unmarked) [Example 1-12-77, 6-(7-((1-(4-Methoxypyrimidin-2-yl)ethyl)amino)thianthren-1-yl)-4-morpholino pyridin-2(1H)-one], the IC50 on ATM is less than 100 nM. Further, in assay [1] (Homo sapiens, NCI-H460, 120 h), the SER2 (concentration at which the radiation sensitivity-enhancement ratio reaches 2) lay in the range of 100 to 500 nM.
